# Results reported in patent publication US20260022116A1, “IMIDAZOPYRIDINE COMPOUNDS, PREPARATION THEREOF AND THERAPEUTIC USES THEREOF” (SANOFI, priority 2022, published 2026).
# Counter-ions that a name gives are not always drawn.
# Tests used:
# ERK5 [1] = target: T1, ERK5 (Homo sapiens, UniProt Q13164); test: cell-based
# Target sequence in this assay (Q13164 whole entry): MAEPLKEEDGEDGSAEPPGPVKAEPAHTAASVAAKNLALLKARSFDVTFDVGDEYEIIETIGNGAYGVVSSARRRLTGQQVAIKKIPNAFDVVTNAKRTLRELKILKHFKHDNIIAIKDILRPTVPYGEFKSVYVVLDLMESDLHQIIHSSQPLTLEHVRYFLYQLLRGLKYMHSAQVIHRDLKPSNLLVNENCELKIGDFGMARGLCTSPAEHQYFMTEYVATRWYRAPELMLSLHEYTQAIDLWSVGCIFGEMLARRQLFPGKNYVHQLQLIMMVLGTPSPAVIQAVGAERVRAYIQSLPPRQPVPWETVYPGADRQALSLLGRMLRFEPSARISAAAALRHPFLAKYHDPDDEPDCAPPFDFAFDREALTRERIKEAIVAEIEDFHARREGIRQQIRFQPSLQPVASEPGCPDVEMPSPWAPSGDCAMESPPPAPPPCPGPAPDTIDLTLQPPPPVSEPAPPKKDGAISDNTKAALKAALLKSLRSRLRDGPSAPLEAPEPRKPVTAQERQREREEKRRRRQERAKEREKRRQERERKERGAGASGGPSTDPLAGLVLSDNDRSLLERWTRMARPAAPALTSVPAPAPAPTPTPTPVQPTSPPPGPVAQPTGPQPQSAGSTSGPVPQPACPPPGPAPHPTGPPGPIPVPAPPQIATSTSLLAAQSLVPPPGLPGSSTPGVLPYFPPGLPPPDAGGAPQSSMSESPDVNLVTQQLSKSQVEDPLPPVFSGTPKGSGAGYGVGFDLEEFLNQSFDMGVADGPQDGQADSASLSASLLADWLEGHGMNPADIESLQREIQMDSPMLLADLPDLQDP
# Method: (§1) Two assays were performed to assess the ERK5 inhibitory activity of compounds of the Examples, a cell-based assay and a cell-free biochemical assay.
# The renal cancer cell line SN12C was transduced by a lentivirus pGreenFire1 MEF2 EF1 Neo (ref TR030VA-N) from SBI using standard infection protocol. pGreenFire1 MEF2 EF1 Neo allows the expression of luciferase gene under the control of minimal promoter with MEF2 transcriptional response elements. Cells harboring the reporter construct were selected by geneticin treatment. The selected cells were then transposed by a piggyback based plasmid pCM4007 allowing the expression of constitutively activated MEK5DD under control of TREG3 promoter, a doxycycline regulated promoter. Transposed cells were selected by puromycin treatment. Upon doxycycline treatment (1 μg/ml) MEK5DD was expressed. MEK5DD activates ERK5 that phosphorylates MEF2C protein. Activated MEF2C protein can bind to its transcriptional response elements. Then the luciferase is expressed. In a 96-well plate (96F nuncleon ref137101 thermofisher), 50,000 cells were inoculated in 142.5 μl of RPMI medium containing 10% fetal calf serum, 1% glutamine, and 1 μg/ml doxycycline. […] The luciferase activity was measured using the Kit Bright Glo Luminescent Cell Assay Cat E2610 (Promega) according to the manufacturer's protocol. Luminescence was determined using 0.2 second reading/well using a Tecan SPARK. IC50 values were calculated using XLFIT5 for Microsoft Excel using method 205.
# ERK5 [2] = target: T1, ERK5; test: biochemical
# Target sequence in this assay (Q13164 55-347 limits assumed): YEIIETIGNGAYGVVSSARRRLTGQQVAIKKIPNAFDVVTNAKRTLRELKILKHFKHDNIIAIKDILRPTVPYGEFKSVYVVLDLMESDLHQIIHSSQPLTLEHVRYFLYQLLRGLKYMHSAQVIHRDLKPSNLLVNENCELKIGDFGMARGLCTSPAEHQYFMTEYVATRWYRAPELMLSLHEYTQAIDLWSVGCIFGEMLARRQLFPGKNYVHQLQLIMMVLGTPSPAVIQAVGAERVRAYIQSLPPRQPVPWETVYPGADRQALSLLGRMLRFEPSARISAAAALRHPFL
# Method: as §1
# An assay was performed to measure the capacity of each compound to inhibit ERK5 enzymatic activity. Compound potency was evaluated by Time-Resolved Forster Resonance Energy Transfer (FRET system). […] A mixture of 1 mM ATP and 1 μM biotinylated synthetic peptide was added (Biosyntan GmbH). This synthetic peptide represents amino acids 30-52 of Eukaryotic translation initiation factor 4E-binding protein 1 (see, e.g., the sequence under accession No. NP_004086.1) biotinylated at the N-terminus.
SMILES,IC50 (ERK5 [1]) [nM],IC50 (ERK5 [2]) [nM]
"O=C(c1ccc(S(F)(F)(F)(F)F)cc1)N1CCC(c2c(F)cnc3[nH]c(C4CCOC4)nc23)CC1 (single isomer, unassigned) [Example 400, [4-[6-fluoro-2-[tetrahydrofuran-3-yl]-3H-imidazo[4,5-b]pyridin-7-yl]-1-piperidyl]-[4-(pentafluoro-λ^6-sulfanyl)phenyl]methanone]",104 to 165,684
"Nc1cc(OC(F)(F)F)ccc1C(=O)N1CCC(c2ccnc3[nH]c(C4COCCO4)nc23)CC1 (single isomer, unassigned) [Example 144, [2-amino-4-(trifluoromethoxy)phenyl]-[4-[2-[1,4-dioxan-2-yl]-3H-imidazo[4,5-b]pyridin-7-yl]-1-piperidyl]methanone]",98,102
"O=C(c1ccc(OC(F)(F)F)cc1)N1CCC(c2c(F)cnc3[nH]c(C45CC(C(F)(F)F)(C4)C5)nc23)CC1 [Example 436, [4-[6-fluoro-2-[3-(trifluoromethyl)-1-bicyclo[1.1.1]pentanyl]-3H-imidazo[4,5-b]pyridin-7-yl]-1-piperidyl]-[4-(trifluoromethoxy)phenyl]methanone]",38 to 88,4500
"O=C(c1ccc(C(F)(F)F)c(=O)[nH]1)N1CCC(c2ccnc3[nH]c(C4CCOCC4)nc23)CC1 [Example 53, 6-[4-(2-Tetrahydropyran-4-yl-3H-imidazo[4,5-b]pyridin-7-yl)piperidine-1-carbonyl]-3-(trifluoromethyl)-1H-pyridin-2-one, hydrochloride]",> 10000,262
"Nc1cc(OC(F)(F)F)ccc1C(=O)N1CCC(c2c(F)cnc3[nH]c(C45CC(C(F)(F)F)(C4)C5)nc23)CC1 [Example 432, [2-amino-4-(trifluoromethoxy)phenyl]-[4-[6-fluoro-2-[3-(trifluoromethyl)-1-bicyclo[1.1.1]pentanyl]-3H-imidazo[4,5-b]pyridin-7-yl]-1-piperidyl]methanone]",16 to 43,3870
"Nc1cc(OC(F)(F)F)ccc1C(=O)N1CCC(c2ccnc3[nH]c(CC4CCOC4)nc23)CC1 (single isomer, unassigned) [Example 2, [2-Amino-4-(trifluoromethoxy)phenyl]-[4-[2-(tetrahydrofuran-3-ylmethyl)-3H-imidazo[4,5-b]pyridin-7-yl]-1-piperidyl]methanone]",134,140
"O=C(c1ccc(S(F)(F)(F)(F)F)cc1)N1CCC(c2ccnc3[nH]c(C4CCOC4)nc23)CC1 (single isomer, unassigned) [Example 301, [4-(pentafluoro-λ^6-sulfanyl)phenyl]-[4-[2-[tetrahydrofuran-3-yl]-3H-imidazo[4,5-b]pyridin-7-yl]-1-piperidyl]methanone]",284,273
"Nc1cc(S(F)(F)(F)(F)F)ccc1C(=O)N1CCC(c2ccnc3[nH]c(C4CCOC4)nc23)CC1 (single isomer, unassigned) [Example 308, [2-amino-4-(pentafluoro-λ^6-sulfanyl)phenyl]-[4-[2-[tetrahydrofuran-3-yl]-3H-imidazo[4,5-b]pyridin-7-yl]-1-piperidyl]methanone]",99,97
"CC12CC(N)(C1)C(c1nc3c(C4CCN(C(=O)c5ccc(OC(F)(F)F)cc5N)CC4)ccnc3[nH]1)O2 (single isomer, unassigned) [Example 254, [4-[2-[4-amino-1-methyl-2-oxabicyclo[2.1.1]hexan-3-yl]-3H-imidazo[4,5-b]pyridin-7-yl]-1-piperidyl]-[2-amino-4-(trifluoromethoxy)phenyl]methanone]",203,207
"O=C(c1ccc(S(F)(F)(F)(F)F)cc1)N1CCC(c2ccnc3[nH]c(C4CCCO4)nc23)CC1 (single isomer, unassigned) [Example 298, [4-(pentafluoro-λ^6-sulfanyl)phenyl]-[4-[2-[tetrahydrofuran-2-yl]-3H-imidazo[4,5-b]pyridin-7-yl]-1-piperidyl]methanone]",163,166
"O=C(c1ccc(C(F)(F)F)[nH]c1=O)N1CCC(c2ccnc3[nH]c(C4CCOCC4)nc23)CC1 [Example 264, 3-[4-(2-tetrahydropyran-4-yl-3H-imidazo[4,5-b]pyridin-7-yl)piperidine-1-carbonyl]-6-(trifluoromethyl)-1H-pyridin-2-one]",> 10000,98
O=C(c1ccc(S(F)(F)(F)(F)F)cc1)N1CCC(c2c(F)cnc3[nH]c(N4CCOCC4)nc23)CC1 [Example 449],–,280

# Second part, the compound after the results:
IC50 (ERK5 [1]) [nM],IC50 (ERK5 [2]) [nM],SMILES
37,36,"Nc1c(C(=O)N2CCC(c3ccnc4[nH]c(C5CCOCC5)nc34)CC2)ccc(OC(F)(F)F)c1F [Example 189, [2-amino-3-fluoro-4-(trifluoromethoxy)phenyl]-[4-(2-tetrahydropyran-4-yl-3H-imidazo[4,5-b]pyridin-7-yl)-1-piperidyl]methanone]"
6640,6910,"Nc1c(C(=O)N2CCC(c3ccnc4[nH]c(C5CCOCC5)nc34)CC2)cnn1-c1ccccc1 [Example 105, (5-amino-1-phenyl-pyrazol-4-yl)-[4-(2-tetrahydropyran-4-yl-3H-imidazo[4,5-b]pyridin-7-yl)-1-piperidyl]methanone]"
> 10000,26800,"CS(=O)(=O)c1ccc(C(=O)N2CCC(c3ccnc4[nH]c(C5CCOCC5)nc34)CC2)c(N)c1 [Example 84, (2-amino-4-methylsulfonyl-phenyl)-[4-(2-tetrahydropyran-4-yl-3H-imidazo[4,5-b]pyridin-7-yl)-1-piperidyl]methanone]"
> 10000,18000,"O=C(C1CCN(c2ccccc2Cl)C1)N1CCC(c2ccnc3[nH]c(C4CCOCC4)nc23)CC1 (stereo not drawn) [Example 118, [1-(2-chlorophenyl)pyrrolidin-3-yl]-[4-(2-tetrahydropyran-4-yl-3H-imidazo[4,5-b]pyridin-7-yl)-1-piperidyl]methanone]"
> 10000,25700,"O=C1Nc2ccccc2OC1CC(=O)N1CCC(c2ccnc3[nH]c(C4CCOCC4)nc23)CC1 (stereo not drawn) [Example 106, 2-[2-oxo-2-[4-(2-tetrahydropyran-4-yl-3H-imidazo[4,5-b]pyridin-7-yl)-1-piperidyl]ethyl]-4H-1,4-benzoxazin-3-one]"
> 10000,14900,"O=C(c1cnn(Cc2ccccc2Cl)c1)N1CCC(c2ccnc3[nH]c(C4CCOCC4)nc23)CC1 [Example 112, [1-[(2-chlorophenyl)methyl]pyrazol-4-yl]-[4-(2-tetrahydropyran-4-yl-3H-imidazo[4,5-b]pyridin-7-yl)-1-piperidyl]methanone]"
> 10000,16400,"Nc1nc2ccccc2nc1C(=O)N1CCC(c2ccnc3[nH]c(C4CCOCC4)nc23)CC1 [Example 116, (3-aminoquinoxalin-2-yl)-[4-(2-tetrahydropyran-4-yl-3H-imidazo[4,5-b]pyridin-7-yl)-1-piperidyl]methanone]"
> 10000,6600,"O=C(c1cn(-c2ccc(F)cc2)cn1)N1CCC(c2ccnc3[nH]c(C4CCOCC4)nc23)CC1 [Example 120, [1-(4-fluorophenyl)imidazol-4-yl]-[4-(2-tetrahydropyran-4-yl-3H-imidazo[4,5-b]pyridin-7-yl)-1-piperidyl]methanone]"
